Experimental data reported in the NIST ThermoML archive (doi:10.1021/acs.jced.6b00181).

Assay: xn = mol fraction of the nth substance listed
Settings: Liquid, Other PVT measurement

C=CC [propene] + CCCCCC
Settings	mass density [kg/m3]
295.6 K, 55300 kPa, x1 = 0.1414	688.2
295.6 K, 55600 kPa, x1 = 0.1414	688.2
295.6 K, 58000 kPa, x1 = 0.1414	689.8
295.6 K, 58400 kPa, x1 = 0.8985	594.2
295.6 K, 61800 kPa, x1 = 0.8985	596.6
295.6 K, 61900 kPa, x1 = 0.1414	692.5
295.6 K, 66100 kPa, x1 = 0.1414	695.3
295.6 K, 66200 kPa, x1 = 0.1414	695.3
295.6 K, 67300 kPa, x1 = 0.8985	601.4
324.4 K, 900 kPa, x1 = 0.4466	560.3
324.4 K, 1400 kPa, x1 = 0.4466	561.7
324.4 K, 1900 kPa, x1 = 0.4466	562.5
324.4 K, 2100 kPa, x1 = 0.4466	563.2
324.4 K, 3400 kPa, x1 = 0.4466	565.5
324.4 K, 4900 kPa, x1 = 0.4466	568.9
324.4 K, 6800 kPa, x1 = 0.4466	571.9
324.4 K, 10200 kPa, x1 = 0.4466	577.8
324.4 K, 17200 kPa, x1 = 0.4466	588.5
324.4 K, 23800 kPa, x1 = 0.4466	597.6
324.4 K, 30700 kPa, x1 = 0.4466	606.1
324.4 K, 37800 kPa, x1 = 0.4466	614
324.4 K, 44700 kPa, x1 = 0.4466	620.3
324.4 K, 51400 kPa, x1 = 0.4466	626.2
324.4 K, 58300 kPa, x1 = 0.4466	631.8
324.4 K, 63700 kPa, x1 = 0.4466	636
324.4 K, 67500 kPa, x1 = 0.4466	638.9
324.6 K, 700 kPa, x1 = 0.1414	611.8
324.6 K, 1200 kPa, x1 = 0.1414	612.7
324.6 K, 1300 kPa, x1 = 0.606	533.2
324.6 K, 1800 kPa, x1 = 0.606	534.5
324.6 K, 1900 kPa, x1 = 0.1414	614
324.6 K, 2500 kPa, x1 = 0.606	536.2
324.6 K, 3400 kPa, x1 = 0.606	538.3
324.6 K, 3600 kPa, x1 = 0.1414	616.6
324.6 K, 5000 kPa, x1 = 0.1414	618.8
324.6 K, 5300 kPa, x1 = 0.606	542.5
324.6 K, 6800 kPa, x1 = 0.606	545.6
324.6 K, 7100 kPa, x1 = 0.1414	621.9
324.6 K, 8900 kPa, x1 = 0.1414	624.1
324.6 K, 9600 kPa, x1 = 0.1414	625.5
324.6 K, 10300 kPa, x1 = 0.1414	625.9
324.6 K, 10300 kPa, x1 = 0.606	552.4
324.6 K, 12300 kPa, x1 = 0.1414	628.6
324.6 K, 13600 kPa, x1 = 0.1414	630
324.6 K, 17100 kPa, x1 = 0.1414	634.1
324.6 K, 17400 kPa, x1 = 0.606	564.6
324.6 K, 19700 kPa, x1 = 0.1414	637.3
324.6 K, 23900 kPa, x1 = 0.606	573.8
324.6 K, 24100 kPa, x1 = 0.1414	642
324.6 K, 27400 kPa, x1 = 0.1414	644.9
324.6 K, 30700 kPa, x1 = 0.1414	648.2
324.6 K, 30700 kPa, x1 = 0.606	583.4
324.6 K, 34300 kPa, x1 = 0.1414	651.6
324.6 K, 37500 kPa, x1 = 0.1414	654.6
324.6 K, 37900 kPa, x1 = 0.606	592.4
324.6 K, 44300 kPa, x1 = 0.1414	660.5
324.6 K, 44400 kPa, x1 = 0.606	599.1
324.6 K, 47800 kPa, x1 = 0.1414	663.5
324.6 K, 51300 kPa, x1 = 0.1414	666.6
324.6 K, 51400 kPa, x1 = 0.606	606.4
324.6 K, 55200 kPa, x1 = 0.1414	669.7
324.6 K, 58100 kPa, x1 = 0.606	612.2
324.6 K, 58400 kPa, x1 = 0.1414	672.2
324.6 K, 62700 kPa, x1 = 0.1414	675.4
324.6 K, 63000 kPa, x1 = 0.606	616.2
324.6 K, 66500 kPa, x1 = 0.1414	678.5
324.6 K, 67200 kPa, x1 = 0.606	619.4
325.1 K, 2100 kPa, x1 = 0.9003	470.3
325.1 K, 2800 kPa, x1 = 0.9003	473.5
325.1 K, 3700 kPa, x1 = 0.9003	476.8
325.1 K, 7000 kPa, x1 = 0.9003	489.5
325.1 K, 10400 kPa, x1 = 0.9003	499.8
325.1 K, 16500 kPa, x1 = 0.9003	515.1
325.1 K, 24000 kPa, x1 = 0.9003	530.6
325.1 K, 30900 kPa, x1 = 0.9003	542.4
325.1 K, 37500 kPa, x1 = 0.9003	551.5
325.1 K, 44500 kPa, x1 = 0.9003	559.6
325.1 K, 51500 kPa, x1 = 0.9003	567.6
325.1 K, 58300 kPa, x1 = 0.9003	574.5
325.1 K, 63700 kPa, x1 = 0.9003	580.2
325.1 K, 67200 kPa, x1 = 0.9003	583.3
325.5 K, 2400 kPa, x1 = 0.8985	471.9
325.5 K, 2800 kPa, x1 = 0.8985	474.2
325.5 K, 3500 kPa, x1 = 0.8985	476.7
325.5 K, 4700 kPa, x1 = 0.8985	481.2
